# According to the supplement of paper PMC8253809:
# How the values were obtained:
# Assay in all cases: area under dose-response curve of % growth inhibition (log2 RLU vs DMSO / staurosporine), 1e-11 to 1e-4 M (% x log10 M); higher = more growth inhibition
# [1] = test system: DIPGX37 (H3.3 K27M diffuse intrinsic pontine glioma line)
# Outline: (§1)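 Cells were exposed in triplicate for 7 days (iAstro: 3 days) at 37 °C, 5% CO2 to a 10-point series of threefold dilutions with a mean top concentration of 35 μM. These were patient-derived pHGG/DIPG lines plus astrocytes, grown on 384-well plates coated with 1% Geltrex. Readout was CellTiter-Glo luminescence, log2-transformed and set per plate to % activity between solvent and positive controls, from which area under the curve was derived by trapezoid rule on a log-logistic fit or, failing that, a smoothing spline.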
# [2] = test system: HGGX6 (H3.3 G34R paediatric high-grade glioma line)
# Outline: as §1
# [3] = test system: DIPGX29 (H3.3 K27M diffuse intrinsic pontine glioma line)
# Outline: as §1
# [4] = test system: HGGX39 (paediatric high-grade glioma line)
# Outline: as §1
SMILES,area under dose-response curve [1],area under dose-response curve [2],area under dose-response curve [3],area under dose-response curve [4]
Nc1ncnc2c1c(COc1cccc(Cl)c1)nn2C1CCOCC1,32.2,14.3,10,23.5
O=C(O)c1ccc(CN2CCC(CN[C@@H]3C[C@H]3c3ccccc3)CC2)cc1,20.1,0.903,1.9,2.17
CN(N=O)C(=O)N[C@H]1C(O)O[C@H](CO)[C@@H](O)[C@@H]1O (mixture of isomers) [STREPTOZOSIN],8.39,5.51,11,7.25
Nc1ncn([C@@H]2O[C@H](CO)[C@@H](O)[C@H]2O)c(=O)n1 [5-AZACYTIDINE],18.2,12.1,12.5,17.6
Nc1nc(=O)n([C@H]2C[C@H](O)[C@@H](CO)O2)cc1F [5-FLUORODEOXYCYTIDINE],10.7,28.8,42.2,39.7
O=c1[nH]cc(F)c(=O)[nH]1 [5-FLUOROURACIL],4.4,25.2,17.6,10.6
COc1cc2c(cc1OCCCN1CCCC1)N=C(N)C21CCC1 [A-366],19,19.9,9.92,9.97
CC(=O)O[C@H]1CC[C@@]2(C)C(=CC[C@@H]3[C@@H]2CC[C@]2(C)C(c4cccnc4)=CC[C@@H]32)C1 [ABIRATERONE ACETATE],20.1,0,0,6.95
CCC1(c2ccc(N)cc2)CCC(=O)NC1=O (stereo unspecified) [AMINOGLUTETHIMIDE],4.75,14.3,7.58,3.33
CC(C)(C#N)c1cc(Cn2cncn2)cc(C(C)(C)C#N)c1 [ANASTROZOLE],5.71,1.46,7.52,1.48
CO[C@H]1O[C@@H]2O[C@@]3(C)CC[C@H]4[C@H](C)CC[C@@H]([C@H]1C)[C@@]24OO3 [ARTEMETHER],3.95,17.6,5.53,14.4
CCN(C(=O)CO)[C@H]1CN(/C(=N\C#N)Nc2cccc(OC(F)F)c2)N=C1c1ccc(Cl)c(Cl)c1 [BAY598],16.3,8.24,18.1,10.8
Cn1cc(CCn2cnc(-c3cnn(C)c3)c2-c2ccc(C#N)cc2)cn1 [BAZ2-ICR],22.9,14.6,8.96,16.5
C[C@H]1C[C@H]2[C@@H]3CCC4=CC(=O)C=C[C@]4(C)[C@@]3(F)[C@@H](O)C[C@]2(C)[C@@]1(O)C(=O)CO [BETAMETHASONE],10.5,16.4,23.1,11.8
C=C(c1ccc(C(=O)O)cc1)c1cc2c(cc1C)C(C)(C)CCC2(C)C [BEXAROTENE],6.14,13.2,21.8,28.4
COc1cc(-c2cn(C)c(=O)c3cnccc23)c(OC)cc1CN(C)C [BI-9564],11.6,3.53,12.6,5.33
C/C(=C\C(=O)Nc1ccccc1C(=O)O)c1ccc2ccccc2c1 [BIBR-1532],20.5,8.79,0,0
CC(=O)Oc1ccc(C(c2ccc(OC(C)=O)cc2)c2ccccn2)cc1 [BISACODYL],11.1,10.4,2.56,27.8
O=c1[nH]c(=O)n([C@H]2C[C@H](O)[C@@H](CO)O2)cc1/C=C/Br [BRIVUDINE],9.7,2.8,6.05,1.13
CCCC1O[C@@H]2C[C@H]3[C@@H]4CCC5=CC(=O)C=C[C@]5(C)[C@H]4[C@@H](O)C[C@]3(C)[C@]2(C(=O)CO)O1 (stereo partly specified) [BUDESONIDE],19.3,6.8,35.7,11.8
CCCCCCNC(=O)n1cc(F)c(=O)[nH]c1=O [CARMOFUR],30.3,15.3,20.1,20.2
O=C(O)CCCc1ccc(N(CCCl)CCCl)cc1 [CHLORAMBUCIL],15.9,18.3,25.8,20.8
Nc1nc(Cl)nc2c1ncn2[C@H]1C[C@H](O)[C@@H](CO)O1 [CLADRIBINE],32.4,39.3,54.8,40.8
Nc1ccn([C@@H]2O[C@H](CO)[C@@H](O)[C@@H]2O)c(=O)n1 [CYTARABINE],23.3,15.6,42.9,30.6
CN(C)/N=N/c1[nH]cnc1C(N)=O [DACARBAZINE],17.2,16.5,6.29,19.3

SMILES,area under dose-response curve [1],area under dose-response curve [2],area under dose-response curve [3],area under dose-response curve [4]
Nc1ncn([C@H]2C[C@H](O)[C@@H](CO)O2)c(=O)n1 [DECITABINE],9.77,3.81,4.32,7.33
CC(=O)O[C@@]12CO[C@@H]1C[C@H](O)[C@@]1(C)C(=O)[C@H](O)C3=C(C)[C@@H](OC(=O)[C@H](O)[C@@H](NC(=O)OC(C)(C)C)c4ccccc4)C[C@@](O)([C@@H](OC(=O)c4ccccc4)[C@H]21)C3(C)C [DOCETAXEL],56,86.7,55.8,120
COc1cc([C@@H]2c3cc4c(cc3[C@@H](O[C@@H]3O[C@@H]5CO[C@@H](C)O[C@H]5[C@H](O)[C@H]3O)[C@H]3COC(=O)[C@H]23)OCO4)cc(OC)c1O [ETOPOSIDE],14.2,25.4,39.6,33.1
Cc1cc(C#N)cc(C)c1Oc1nc(Nc2ccc(C#N)cc2)nc(N)c1Br [ETRAVIRINE],10.8,9.91,24.2,18.9
CS(=O)(=O)c1ccc([C@@H](O)[C@@H](CF)NC(=O)C(Cl)Cl)cc1 [FLORFENICOL],10.6,4.4,11.3,15.6
Nc1nc(F)nc2c1ncn2[C@@H]1O[C@H](COP(=O)(O)O)[C@@H](O)[C@@H]1O [FLUDARABINE PHOSPHATE],39.7,6.46,32.1,10.3
N[C@H](CCC(=O)N[C@@H](Cc1c[nH]c2ccccc12)C(=O)O)C(=O)O [GOLOTIMOD],15.2,5.25,8.23,0.705
CCCOc1ccn2c(C(C)=O)cc(-c3ccccc3S(C)(=O)=O)c2c1 [GSK2801],8.52,21.4,19.1,10.4
COc1ccccc1C(=O)Nc1cc2c(cc1N1CCCCC1)n(C)c(=O)n2C [GSK-5959],76.9,45.8,8.32,41.9
c1ccc([C@@H]2C[C@H]2NC2CCNCC2)cc1 [GSK-LSD1],5.85,0,0,0
Nc1ncn([C@H]2C[C@H](OP(=O)(O)OC[C@H]3O[C@@H](n4cnc5c(=O)[nH]c(N)nc54)C[C@@H]3O)[C@@H](CO)O2)c(=O)n1 [GUADECITABINE],16.4,0,0,0
CCN(CCO)CCCC(C)Nc1ccnc2cc(Cl)ccc12 (stereo unspecified) [HYDROXYCHLOROQUINE],8.17,1.95,5.15,0
CCC(=O)N1CCOc2c(cc(-c3ccc(OC)c(OC)c3)cc2OC[C@H]2CCCN(C)C2)C1 [I-CBP112],18,16.4,14.1,2.35
COc1cc(C(C)=O)ccc1OCCCN1CCC(c2noc3cc(F)ccc23)CC1 [ILOPERIDONE],13.2,5.98,15.1,10.3
O=C(O)c1ccc(O)c2ncccc12 [IOX1],9.36,5.89,3.7,2.63
O=C(O)CNC(=O)c1c(O)c2ccccc2n(Cc2ccccc2)c1=O [IOX2],6.07,12.6,9.33,12.7
CCOC(=O)c1ccnc(CNCC(=O)N(CC)CCN(C)C)c1 [KDM5-C70],3.66,2.7,9.21,7.74
Cc1oncc1C(=O)Nc1ccc(C(F)(F)F)cc1 [LEFLUNOMIDE],2.94,2.22,5.84,4.82
CC(N[C@H]1C[C@@H]1c1ccccc1)c1ccc2c(c1)OCCO2 (stereo partly specified) [LSD1-C76],24,7.75,6.56,12
CN(Cc1cnc2nc(N)nc(N)c2n1)c1ccc(C(=O)N[C@@H](CCC(=O)O)C(=O)O)cc1 [METHOTREXATE],30.5,58.8,44.1,39.9
Clc1ccc(C(c2ccccc2Cl)C(Cl)Cl)cc1 (stereo unspecified) [MITOTANE],16.1,12.5,12.9,8.7
C[C@@H]1C[C@H]2[C@@H]3CCC4=CC(=O)C=C[C@]4(C)[C@@]3(Cl)[C@@H](O)C[C@]2(C)[C@@]1(OC(=O)c1ccco1)C(=O)CCl [MOMETASONE FUROATE],40.5,8.37,42.1,20.8
CC(C)Oc1ccc(-c2c[nH]cc2CN(C)CCN)cc1 [MS023],10.6,14.7,10.9,8.58
CNCCN1CCC(OCc2ccccc2)CC1 [MS049],10.6,11.9,19.1,9.22
